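In this assay, cells in 96-well plates receive the compound at five concentrations for 48 hours. Endpoints are linearly interpolated between the surrounding concentrations. Abbreviation: GI50, concentration required for 50% inhibition of growth.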 Active and inactive are the calls of the source. No stated cut-off is given here; in the data, active = GI50 up to about 1.1 µM and inactive = higher.
Tests used:
Test in all cases: inhibition of tumour cell growth, NCI panel, 48 h
A549 = tested on: A549
DU-145 = tested on: DU-145
EKVX = tested on: EKVX
HL-60 = tested on: HL-60
HOP-92 = tested on: HOP-92
IGROV-1 = tested on: IGROV-1
MDA-MB-231 = tested on: MDA-MB-231
MDA-MB-435 = tested on: MDA-MB-435
MDA-N = tested on: MDA-N
NCI-H226 = tested on: NCI-H226
OVCAR-4 = tested on: OVCAR-4
OVCAR-8 = tested on: OVCAR-8
PC-3 = tested on: PC-3
RPMI-8226 = tested on: RPMI-8226
RXF 393 = tested on: RXF 393
SF-268 = tested on: SF-268
SR = tested on: SR
UACC-257 = tested on: UACC-257
T47D = tested on: T47D

Measured: GI50

CC(=O)C(C(C)=O)[C@@H]1OC(C)(C)O[C@@H]1[C@H]1COC(C)(C)O1
inactive: A549 > 100 µM | DU-145 51.8 µM | EKVX 27.7 µM | HL-60 26.6 µM | HOP-92 > 100 µM | IGROV-1 35.6 µM | MDA-MB-231 > 100 µM | MDA-MB-435 38.7 µM | MDA-N 23.3 µM | NCI-H226 > 100 µM | OVCAR-4 51.1 µM | OVCAR-8 40.6 µM | PC-3 43.6 µM | RPMI-8226 34.7 µM | RXF 393 51.8 µM | SF-268 30.1 µM | SR 38.8 µM | UACC-257 64 µM

CCCCN(CCCC)CC(=O)c1ccc2cc(Cl)c3ccccc3c2c1
inactive: A549 27.2 µM | DU-145 > 100 µM | EKVX 67.3 µM | HL-60 24.1 µM | HOP-92 33.5 µM | IGROV-1 20.9 µM | MDA-MB-231 31.4 µM | MDA-MB-435 30.4 µM | NCI-H226 25.3 µM | OVCAR-4 24.2 µM | OVCAR-8 20 µM | PC-3 32 µM | RPMI-8226 7.98 µM | RXF 393 13.4 µM | SF-268 16.1 µM | SR 16.1 µM | T47D 17.7 µM | UACC-257 31.9 µM

Cc1cn([C@@H]2C[C@](C)(CO)N(C)O2)c(=O)[nH]c1=O
inactive: A549 > 100 µM | DU-145 > 100 µM | EKVX > 100 µM | HL-60 > 100 µM | HOP-92 > 100 µM | IGROV-1 > 100 µM | MDA-MB-231 > 100 µM | MDA-MB-435 > 100 µM | MDA-N > 100 µM | NCI-H226 > 100 µM | OVCAR-4 > 100 µM | OVCAR-8 > 100 µM | PC-3 > 100 µM | RPMI-8226 > 100 µM | RXF 393 > 100 µM | SF-268 > 100 µM | SR > 100 µM | UACC-257 > 100 µM

CCOc1cc2c(cc1O)/C(=N/NS(=O)(=O)c1ccc(C)cc1)C[C@@H]1[C@@H]2CC[C@]2(C)[C@@H](O)CC[C@@H]12
active: SR 1.04 µM
inactive: A549 6.46 µM | EKVX 13 µM | HOP-92 8.65 µM | IGROV-1 12.1 µM | MDA-MB-231 8.51 µM | MDA-N 1.2 µM | NCI-H226 6.01 µM | OVCAR-4 4.78 µM | OVCAR-8 12.4 µM | PC-3 7.53 µM | RPMI-8226 2.92 µM | RXF 393 4.85 µM | SF-268 7.13 µM | T47D 6.87 µM | UACC-257 58.2 µM

ClC1(c2ccccc2)c2ccc(Br)cc2-c2cc(Br)ccc21
inactive: A549 17.1 µM | DU-145 22.6 µM | EKVX 17.9 µM | HL-60 19.3 µM | HOP-92 15.6 µM | IGROV-1 16.2 µM | MDA-MB-231 16.7 µM | MDA-MB-435 13.5 µM | NCI-H226 17.4 µM | OVCAR-4 14.1 µM | OVCAR-8 18.2 µM | PC-3 17.4 µM | RPMI-8226 28.7 µM | RXF 393 18.4 µM | SF-268 18.5 µM | SR 32.7 µM | T47D 19.7 µM | UACC-257 18.3 µM

COc1c(C)c(C/C=C(\C)CC/C=C(\C)CCC=C(C)C)c(OC)c(OC)c1OC
inactive: A549 49.3 µM | DU-145 > 100 µM | EKVX 83.9 µM | HOP-92 > 100 µM | IGROV-1 > 100 µM | MDA-MB-231 > 100 µM | MDA-MB-435 21.5 µM | MDA-N 76.9 µM | OVCAR-4 > 100 µM | OVCAR-8 > 100 µM | PC-3 > 100 µM | RXF 393 44 µM | SF-268 > 100 µM | SR 66.4 µM | UACC-257 64.9 µM

O=C(c1ccccc1)c1c(-c2ccccc2)sc2nc3ccccc3nc12
inactive: A549 > 100 µM | EKVX > 100 µM | HL-60 > 100 µM | HOP-92 16.4 µM | IGROV-1 > 100 µM | NCI-H226 20.3 µM | OVCAR-4 37.8 µM | OVCAR-8 > 100 µM | RPMI-8226 > 100 µM | RXF 393 45.4 µM | SF-268 > 100 µM | UACC-257 > 100 µM

CCOC(=O)/C(=C\NC(N)=S)C(=O)c1ccccc1
inactive: A549 > 100 µM | DU-145 > 100 µM | EKVX > 100 µM | HL-60 > 100 µM | HOP-92 > 100 µM | IGROV-1 > 100 µM | MDA-MB-231 > 100 µM | MDA-MB-435 > 100 µM | MDA-N > 100 µM | NCI-H226 > 100 µM | OVCAR-4 > 100 µM | OVCAR-8 > 100 µM | RXF 393 > 100 µM | SF-268 > 100 µM | T47D > 100 µM | UACC-257 > 100 µM

Source: ChEMBL document CHEMBL1201862, “PubChem BioAssay data set” (2004)
